Holding throughout (assay): inhibition of methyl p-nitrophenyl phosphate hydrolysis, […] nm
Common to all, as to assay type: biochemical

Experiment [1] concerns the target AP (Escherichia coli alkaline phosphatase) (Escherichia coli, UniProt P00634, K350A).
Experiment [2] has as its target AP (Escherichia coli alkaline phosphatase) (Escherichia coli, UniProt P00634, D123A).
The target of experiment [3] is AP (Escherichia coli alkaline phosphatase) (Escherichia coli, UniProt P00634, D175A).
Experiment [4] has as its target AP (Escherichia coli alkaline phosphatase) (Escherichia coli, UniProt P00634, E344Y).

The text below walks through data of PMC6169531 (Journal of molecular biology, 2016).

Structures are written as SMILES.

Sequence of AP (Escherichia coli alkaline phosphatase) (Escherichia coli, UniProt P00634, D123A) (P00634 23-471, stated change not applied): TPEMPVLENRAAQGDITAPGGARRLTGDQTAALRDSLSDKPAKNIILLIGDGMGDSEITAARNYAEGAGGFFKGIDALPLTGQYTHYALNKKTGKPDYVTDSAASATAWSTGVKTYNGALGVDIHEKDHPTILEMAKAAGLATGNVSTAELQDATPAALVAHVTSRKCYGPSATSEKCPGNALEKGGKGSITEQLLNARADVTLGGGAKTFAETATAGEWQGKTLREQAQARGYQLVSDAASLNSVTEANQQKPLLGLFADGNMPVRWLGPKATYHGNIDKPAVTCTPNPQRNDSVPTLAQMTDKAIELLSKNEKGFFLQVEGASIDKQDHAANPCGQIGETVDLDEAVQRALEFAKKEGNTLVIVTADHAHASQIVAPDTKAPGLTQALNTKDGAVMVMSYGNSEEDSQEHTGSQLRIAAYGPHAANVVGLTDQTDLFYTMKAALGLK
Sequence of AP (Escherichia coli alkaline phosphatase) (Escherichia coli, UniProt P00634, K350A) (P00634 23-471 K350A): as the sequence (P00634 23-471, stated change not applied) above, with K328A counted along it
Sequence of AP (Escherichia coli alkaline phosphatase) (Escherichia coli, UniProt P00634, D175A) (P00634 23-471 D175A): as the sequence (P00634 23-471, stated change not applied) above, with D153A counted along it
Sequence of AP (Escherichia coli alkaline phosphatase) (Escherichia coli, UniProt P00634, E344Y) (P00634 23-471 E344Y): as the sequence (P00634 23-471, stated change not applied) above, with E322Y counted along it

As to `[O]=[W](=[O])([OH])[OH]` [tungstate], the Ki in experiment [1] is 44 µM; in experiment [2], 99 µM; in experiment [3], 64 µM.

Turning to `[O]=[V]([OH])([OH])[OH]` [vanadate], the inhibition constant (Ki) in experiment [4] is 28 µM; in experiment [1], 9.4 µM; in experiment [2], 13 µM; in experiment [3], 17 µM.

One may read the Ki as a measure of affinity in units of concentration, obtained from inhibition or displacement.
